The results in this text go back to ChEMBL document CHEMBL5465560, “Selectivity Literature for EUbOPEN Chemogenomic Library” (2024).

The target of assay [1] is Proto-oncogene tyrosine-protein kinase ROS (Homo sapiens) (UniProt P08922). The settings on record: at 10 µM.
Assay [2] concerns the target Serine/threonine-protein kinase 38 (Homo sapiens) (UniProt Q15208). The note with it: at 10 µM.
The target in assay [3] is Serine/threonine-protein kinase Nek7 (Homo sapiens) (UniProt Q8TDX7). Briefly: Selectivity interaction (KinomeScan (DiscoverX)) EUB0001079a NEK7. The settings on record: at 1 µM.
For assay [4], the target named is Serine/threonine-protein kinase pim-3 (Homo sapiens) (UniProt Q86V86). Kind of assay: Selectivity interaction (KinomeScan (DiscoverX)) EUB0000695a PIM3. The settings on record: at 100 nM.
The target in assay [5] is Myosin light chain kinase, smooth muscle (Homo sapiens, UniProt Q15746). Briefly: Selectivity interaction (KinomeScan (DiscoverX)) EUB0000045b MYLK. The note with it: at 1 µM.
Assay [6] concerns the target T1, Serine/threonine-protein kinase TNNI3K (Homo sapiens) (UniProt Q59H18).
T1 sequence (whole entry): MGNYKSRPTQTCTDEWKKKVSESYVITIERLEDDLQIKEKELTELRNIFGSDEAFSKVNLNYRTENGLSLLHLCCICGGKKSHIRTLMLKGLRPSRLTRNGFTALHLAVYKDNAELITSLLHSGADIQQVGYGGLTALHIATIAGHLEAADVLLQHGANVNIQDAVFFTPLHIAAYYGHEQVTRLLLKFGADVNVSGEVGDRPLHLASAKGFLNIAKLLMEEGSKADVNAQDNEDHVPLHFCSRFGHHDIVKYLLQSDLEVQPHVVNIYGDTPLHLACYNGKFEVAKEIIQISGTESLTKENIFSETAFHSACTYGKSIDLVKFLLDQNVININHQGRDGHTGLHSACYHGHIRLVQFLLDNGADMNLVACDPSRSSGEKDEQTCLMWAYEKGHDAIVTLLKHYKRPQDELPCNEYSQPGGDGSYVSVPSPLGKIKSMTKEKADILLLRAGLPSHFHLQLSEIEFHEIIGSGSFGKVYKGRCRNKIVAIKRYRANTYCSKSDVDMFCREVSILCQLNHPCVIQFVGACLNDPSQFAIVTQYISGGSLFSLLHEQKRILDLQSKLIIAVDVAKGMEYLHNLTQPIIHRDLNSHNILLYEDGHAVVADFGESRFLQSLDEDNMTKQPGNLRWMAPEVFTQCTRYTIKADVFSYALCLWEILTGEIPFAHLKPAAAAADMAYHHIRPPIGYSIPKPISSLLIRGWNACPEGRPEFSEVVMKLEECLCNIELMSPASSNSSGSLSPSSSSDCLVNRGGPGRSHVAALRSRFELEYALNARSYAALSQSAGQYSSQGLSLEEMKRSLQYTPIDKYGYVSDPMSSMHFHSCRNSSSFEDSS
Briefly: Selectivity interaction (KinomeScan (DiscoverX)) EUB0000607a TNNI3K. The note with it: at 10 µM.

Assay [7] concerns the target T2, Interleukin-1 receptor-associated kinase 3 (Homo sapiens) (UniProt Q9Y616).
T2 sequence (whole entry): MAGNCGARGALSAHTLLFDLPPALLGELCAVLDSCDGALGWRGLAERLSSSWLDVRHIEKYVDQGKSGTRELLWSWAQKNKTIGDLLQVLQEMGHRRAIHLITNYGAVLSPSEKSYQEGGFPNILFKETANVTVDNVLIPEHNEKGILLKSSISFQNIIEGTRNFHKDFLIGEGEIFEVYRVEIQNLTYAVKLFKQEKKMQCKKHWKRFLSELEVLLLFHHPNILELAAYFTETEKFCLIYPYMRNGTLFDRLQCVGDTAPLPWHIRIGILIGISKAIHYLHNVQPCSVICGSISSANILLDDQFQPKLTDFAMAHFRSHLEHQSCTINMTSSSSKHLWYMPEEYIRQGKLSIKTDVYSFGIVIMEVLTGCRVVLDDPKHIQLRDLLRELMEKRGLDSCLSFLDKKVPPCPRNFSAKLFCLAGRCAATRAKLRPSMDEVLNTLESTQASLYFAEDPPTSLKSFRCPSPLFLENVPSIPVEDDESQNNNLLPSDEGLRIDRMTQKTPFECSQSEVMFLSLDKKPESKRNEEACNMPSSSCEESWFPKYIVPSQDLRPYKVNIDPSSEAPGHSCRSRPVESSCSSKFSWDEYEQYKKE
Kind of assay: Selectivity interaction (ActivX KiNativ screen (kinase selectivity in THP-1 cell lysates)) EUB0000639a IRAK3. The note with it: lysate. It is filed as subcellular.

Assay [8] has as its target T3, STE20-related kinase adapter protein alpha (Homo sapiens) (UniProt Q7RTN6).
T3 sequence (whole entry): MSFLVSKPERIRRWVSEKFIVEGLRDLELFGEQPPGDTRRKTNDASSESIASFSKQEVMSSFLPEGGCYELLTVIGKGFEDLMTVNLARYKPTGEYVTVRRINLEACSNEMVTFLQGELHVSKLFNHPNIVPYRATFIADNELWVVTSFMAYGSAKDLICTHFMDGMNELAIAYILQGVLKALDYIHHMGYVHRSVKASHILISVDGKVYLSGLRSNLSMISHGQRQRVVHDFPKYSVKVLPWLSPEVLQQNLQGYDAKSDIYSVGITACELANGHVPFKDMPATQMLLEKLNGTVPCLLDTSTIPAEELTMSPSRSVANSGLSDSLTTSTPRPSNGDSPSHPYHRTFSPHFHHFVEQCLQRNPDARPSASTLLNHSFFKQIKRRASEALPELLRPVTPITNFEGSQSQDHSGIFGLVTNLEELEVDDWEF
Briefly: Selectivity interaction (ActivX KiNativ screen (kinase selectivity in THP-1 cell lysates)) EUB0000639a STRADA. It counts as subcellular. The settings on record: lysate, at 0.2 µM.

Sequence of Myosin light chain kinase, smooth muscle (Q15746 whole entry): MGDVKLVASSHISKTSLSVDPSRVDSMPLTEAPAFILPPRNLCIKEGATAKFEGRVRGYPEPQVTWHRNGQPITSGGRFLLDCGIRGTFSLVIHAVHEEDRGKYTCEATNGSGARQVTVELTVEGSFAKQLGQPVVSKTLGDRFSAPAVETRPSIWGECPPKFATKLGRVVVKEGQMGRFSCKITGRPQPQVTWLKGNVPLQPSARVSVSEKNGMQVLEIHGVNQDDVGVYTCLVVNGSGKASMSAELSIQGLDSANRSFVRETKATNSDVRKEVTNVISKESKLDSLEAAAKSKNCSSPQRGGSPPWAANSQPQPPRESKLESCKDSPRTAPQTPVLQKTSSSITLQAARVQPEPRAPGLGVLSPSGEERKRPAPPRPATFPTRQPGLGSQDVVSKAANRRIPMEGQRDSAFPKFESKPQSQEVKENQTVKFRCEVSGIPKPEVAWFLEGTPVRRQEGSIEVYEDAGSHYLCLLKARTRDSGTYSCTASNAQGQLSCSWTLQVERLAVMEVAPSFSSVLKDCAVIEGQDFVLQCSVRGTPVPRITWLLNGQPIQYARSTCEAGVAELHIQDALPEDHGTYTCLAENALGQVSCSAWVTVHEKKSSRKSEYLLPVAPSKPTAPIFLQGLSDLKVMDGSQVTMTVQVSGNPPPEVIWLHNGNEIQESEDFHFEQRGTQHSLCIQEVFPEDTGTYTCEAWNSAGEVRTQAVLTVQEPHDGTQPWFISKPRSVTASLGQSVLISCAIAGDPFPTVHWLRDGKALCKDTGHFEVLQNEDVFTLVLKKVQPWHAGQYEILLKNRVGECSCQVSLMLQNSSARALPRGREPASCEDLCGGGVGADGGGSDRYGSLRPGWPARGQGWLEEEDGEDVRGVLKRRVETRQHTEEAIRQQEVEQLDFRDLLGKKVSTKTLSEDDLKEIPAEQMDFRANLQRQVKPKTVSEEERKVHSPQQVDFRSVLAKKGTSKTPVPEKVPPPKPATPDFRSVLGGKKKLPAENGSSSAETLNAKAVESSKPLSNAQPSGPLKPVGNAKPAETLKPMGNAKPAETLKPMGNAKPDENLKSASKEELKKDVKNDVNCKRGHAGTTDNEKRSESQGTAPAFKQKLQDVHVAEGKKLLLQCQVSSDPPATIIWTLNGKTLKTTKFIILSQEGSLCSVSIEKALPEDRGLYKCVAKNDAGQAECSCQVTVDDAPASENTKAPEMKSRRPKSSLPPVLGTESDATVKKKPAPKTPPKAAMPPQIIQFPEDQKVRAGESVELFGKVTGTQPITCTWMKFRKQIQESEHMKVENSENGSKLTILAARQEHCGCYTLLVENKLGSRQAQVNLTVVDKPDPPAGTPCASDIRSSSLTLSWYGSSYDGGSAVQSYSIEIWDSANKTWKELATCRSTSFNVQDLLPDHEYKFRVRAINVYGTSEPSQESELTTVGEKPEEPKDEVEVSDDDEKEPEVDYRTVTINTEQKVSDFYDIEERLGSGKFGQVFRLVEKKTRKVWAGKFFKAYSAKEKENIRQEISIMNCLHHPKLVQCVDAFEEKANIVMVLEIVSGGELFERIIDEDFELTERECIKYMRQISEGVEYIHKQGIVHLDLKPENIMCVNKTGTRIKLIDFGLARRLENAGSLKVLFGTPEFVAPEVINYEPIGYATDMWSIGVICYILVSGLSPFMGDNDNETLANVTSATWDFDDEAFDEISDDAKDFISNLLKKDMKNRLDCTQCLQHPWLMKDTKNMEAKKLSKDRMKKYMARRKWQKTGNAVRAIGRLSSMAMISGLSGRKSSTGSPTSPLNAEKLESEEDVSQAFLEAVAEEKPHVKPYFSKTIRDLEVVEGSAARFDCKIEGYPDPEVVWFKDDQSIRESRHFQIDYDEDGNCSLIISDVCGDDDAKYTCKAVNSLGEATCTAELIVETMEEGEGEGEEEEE
Sequence of Serine/threonine-protein kinase Nek7 (Homo sapiens) (Q8TDX7 whole entry, looked up): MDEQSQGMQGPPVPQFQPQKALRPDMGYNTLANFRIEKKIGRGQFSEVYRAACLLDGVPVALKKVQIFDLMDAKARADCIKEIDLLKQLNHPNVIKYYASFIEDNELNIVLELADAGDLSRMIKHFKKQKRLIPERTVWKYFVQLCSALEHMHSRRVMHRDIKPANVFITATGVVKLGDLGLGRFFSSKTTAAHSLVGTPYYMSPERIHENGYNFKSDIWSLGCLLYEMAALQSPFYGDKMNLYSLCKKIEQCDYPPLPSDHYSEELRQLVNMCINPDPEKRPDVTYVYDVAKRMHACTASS
Sequence of Proto-oncogene tyrosine-protein kinase ROS (Homo sapiens) (P08922 whole entry): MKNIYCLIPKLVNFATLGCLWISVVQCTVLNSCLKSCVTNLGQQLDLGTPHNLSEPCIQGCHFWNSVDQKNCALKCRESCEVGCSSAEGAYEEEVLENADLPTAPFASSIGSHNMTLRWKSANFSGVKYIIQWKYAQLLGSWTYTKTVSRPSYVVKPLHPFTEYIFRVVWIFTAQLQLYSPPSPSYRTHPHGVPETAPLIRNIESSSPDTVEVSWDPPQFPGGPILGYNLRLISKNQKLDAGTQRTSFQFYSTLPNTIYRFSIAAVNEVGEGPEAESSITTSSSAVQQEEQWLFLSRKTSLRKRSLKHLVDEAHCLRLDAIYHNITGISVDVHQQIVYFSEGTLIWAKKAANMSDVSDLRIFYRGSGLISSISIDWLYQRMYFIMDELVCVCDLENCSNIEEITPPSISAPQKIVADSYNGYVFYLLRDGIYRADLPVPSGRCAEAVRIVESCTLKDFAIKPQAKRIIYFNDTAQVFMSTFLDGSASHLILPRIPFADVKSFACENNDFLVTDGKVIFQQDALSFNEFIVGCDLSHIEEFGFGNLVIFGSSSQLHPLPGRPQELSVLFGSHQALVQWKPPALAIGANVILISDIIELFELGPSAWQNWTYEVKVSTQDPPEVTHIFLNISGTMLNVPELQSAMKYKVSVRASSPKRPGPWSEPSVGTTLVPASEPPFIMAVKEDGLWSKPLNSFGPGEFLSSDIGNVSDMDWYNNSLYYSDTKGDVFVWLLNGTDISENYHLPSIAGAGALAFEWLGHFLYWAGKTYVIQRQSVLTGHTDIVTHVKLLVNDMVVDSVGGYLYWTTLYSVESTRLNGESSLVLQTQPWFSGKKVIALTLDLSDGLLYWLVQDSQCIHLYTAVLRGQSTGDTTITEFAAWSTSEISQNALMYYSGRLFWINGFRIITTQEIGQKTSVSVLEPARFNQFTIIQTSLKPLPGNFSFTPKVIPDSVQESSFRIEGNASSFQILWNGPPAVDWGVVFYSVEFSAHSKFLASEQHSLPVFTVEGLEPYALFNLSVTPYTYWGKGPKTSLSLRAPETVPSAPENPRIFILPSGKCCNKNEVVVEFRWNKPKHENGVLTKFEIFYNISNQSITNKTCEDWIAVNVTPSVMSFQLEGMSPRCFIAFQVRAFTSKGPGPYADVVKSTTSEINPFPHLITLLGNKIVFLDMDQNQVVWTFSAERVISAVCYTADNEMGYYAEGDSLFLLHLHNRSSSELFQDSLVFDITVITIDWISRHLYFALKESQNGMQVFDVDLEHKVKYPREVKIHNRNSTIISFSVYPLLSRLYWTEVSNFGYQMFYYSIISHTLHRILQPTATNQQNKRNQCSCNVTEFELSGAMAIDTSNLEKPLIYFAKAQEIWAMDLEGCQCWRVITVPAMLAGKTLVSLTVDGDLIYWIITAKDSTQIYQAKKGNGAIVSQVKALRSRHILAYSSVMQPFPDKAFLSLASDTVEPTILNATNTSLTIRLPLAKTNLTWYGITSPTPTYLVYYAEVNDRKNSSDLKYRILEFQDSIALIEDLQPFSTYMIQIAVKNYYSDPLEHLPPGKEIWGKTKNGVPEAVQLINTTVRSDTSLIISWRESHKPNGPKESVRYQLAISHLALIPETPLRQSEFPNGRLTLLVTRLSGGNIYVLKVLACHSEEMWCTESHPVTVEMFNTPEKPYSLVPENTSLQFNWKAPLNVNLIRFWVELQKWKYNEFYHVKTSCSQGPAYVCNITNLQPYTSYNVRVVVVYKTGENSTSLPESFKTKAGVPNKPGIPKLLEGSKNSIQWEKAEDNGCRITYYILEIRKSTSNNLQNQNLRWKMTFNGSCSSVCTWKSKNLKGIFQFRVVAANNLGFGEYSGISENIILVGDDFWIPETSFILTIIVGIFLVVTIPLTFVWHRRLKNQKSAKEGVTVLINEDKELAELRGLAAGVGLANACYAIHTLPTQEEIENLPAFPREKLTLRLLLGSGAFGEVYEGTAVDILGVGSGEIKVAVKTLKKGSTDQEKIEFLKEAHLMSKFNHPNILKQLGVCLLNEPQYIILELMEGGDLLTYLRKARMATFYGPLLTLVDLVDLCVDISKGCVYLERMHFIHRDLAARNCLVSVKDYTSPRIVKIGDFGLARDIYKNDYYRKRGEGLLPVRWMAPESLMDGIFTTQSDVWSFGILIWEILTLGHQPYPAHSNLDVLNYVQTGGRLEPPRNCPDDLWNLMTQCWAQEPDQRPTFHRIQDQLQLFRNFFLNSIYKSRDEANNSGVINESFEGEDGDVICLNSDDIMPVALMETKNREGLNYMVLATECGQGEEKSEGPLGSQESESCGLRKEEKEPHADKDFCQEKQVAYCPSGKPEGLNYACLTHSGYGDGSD
Sequence of Serine/threonine-protein kinase 38 (Homo sapiens) (Q15208 2-465 limits assumed): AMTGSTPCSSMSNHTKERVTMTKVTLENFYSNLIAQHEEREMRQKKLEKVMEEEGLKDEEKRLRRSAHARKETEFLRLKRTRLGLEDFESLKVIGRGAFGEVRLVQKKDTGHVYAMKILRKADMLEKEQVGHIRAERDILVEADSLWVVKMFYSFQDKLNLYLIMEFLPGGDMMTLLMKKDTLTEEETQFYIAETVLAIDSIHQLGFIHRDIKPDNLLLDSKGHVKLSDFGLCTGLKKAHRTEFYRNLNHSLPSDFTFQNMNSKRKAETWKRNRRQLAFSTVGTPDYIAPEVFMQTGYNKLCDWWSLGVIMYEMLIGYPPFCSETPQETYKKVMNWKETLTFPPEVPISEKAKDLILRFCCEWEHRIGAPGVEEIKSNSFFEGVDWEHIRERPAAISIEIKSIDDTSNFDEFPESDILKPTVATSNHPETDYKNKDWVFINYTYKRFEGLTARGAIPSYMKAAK

`Cc1cc([C@@H](C)Nc2ccccc2C(=O)O)c2nc(N3CCOCC3)cc(=O)n2c1` [AZD-6482]: the % of control in assay [1] and in assay [2] was 100% in each case.

Regarding `Nc1cnc(N2CCc3cc(S(=O)(=O)Nc4c(F)cc(Cl)cc4F)cc(N4CCCC4=O)c32)nc1` [TP-020n], the % of control in assay [3] worked out at 96%.

As for `Cc1cc(F)c(C(=O)Nc2cccc(-c3nncn3C(C)C)n2)cc1-n1cnc(C2CC2)c1`, the % of control in assay [4] amounted to 92%.

In the case of `C=CC(=O)Nc1cc(-n2c(=O)ccc3cnc4ccc(-c5ccc(NS(C)(=O)=O)cc5)cc4c32)ccc1C`, the % of control in assay [5] turned out to be 100%.

`CNC(=O)Nc1ccc(-c2nc(N3CC4CCC(C3)O4)c3cnn(C4CCC5(CC4)OCCO5)c3n2)cc1`: the % of control in assay [6] came out at 59%.

As to `CC[C@@H]1[C@H](F)C(=O)N[C@@H]1COc1nccc2cc(C(N)=O)c(OC)cc12` [ZIMLOVISERTIB], the % of inhibition in assay [7] (at 0.01 µM) was -3.6%; in assay [7] (at 0.04 µM), 31.1%; in assay [7] (at 0.2 µM) it was 72.5%; in assay [7] (at 1 µM), 89.6%; in assay [7] (at 5 µM), > 98%; in assay [8], -15.4%.
